Structures can show the parent of a compound that is named as a salt.
Legend:
[1] = test system: CD133, ALDH1A and ABCB5; test: Immunofluorescence of cancer cells from primary tumor micro-environment, chemo-resistant stem-like signature panel; assay type: in vivo, mouse; settings: cancer cells from primary TME; % change relative to vehicle control
Protocol: FIG. 2 is a graphical and photographic representation showing the efficacy of dual phenelzine sulfate (phenelzine) and anti-PD1 antibody (PD1) therapy on circulating tumor cells (CTCs) and cancer stem cells (CSC) as well as tumor burden. A. Statistics of tumor volumes on day 15 post-treatment. A Mann-Whitney non-parametric t-test was used to compare control vs other groups (*p<0.02, **p<0.008). Group A=Control, Group C: PD1 (10 mg/kg), Group D: Phenelzine (40 mg/kg), Group F: PD1+Phenelzine. Illustration of the treatment protocol is also shown. […] Representative images for each dataset are shown. […] C. […] (a) Representative images for each dataset are shown. (b) Graph represents the TCFI values for CD133 TNFI for ALDH1A and TFI for ABCB5 measured using ImageJ to select the nucleus/cytoplasm minus background (n>20 individual cells, Group A=Control, Group C: PD1 (10 mg/kg), Group D: Phenelzine (40 mg/kg), Group F: PD1+Phenelzine).
FIG. 11 is a photographic and graphical representation showing triple therapy efficacy on CTC/CSC and tumor burden. A. Statistics of tumor volumes on day 15 post-treatment. […] (b) Graph represents the TCFI values for CD133 TNFI for ALDH1A and TFI for ABCB5 measured using ImageJ to select the nucleus/cytoplasm minus background (n>20 individual cells, Group A=Control, Group B: Abraxane (30 mg/kg), Group C: anti-PD1 (10 mg/kg), Group D: Phenelzine (40 mg/kg), Group E: Abraxane+PD1, Group F: PD1+Phenelzine, Group G: Abraxane+Phenelzine, Group H: Triple Therapy).
Next, the cancer cells were assessed for expression of a chemo-resistant, stem-like biomarker signature biomarker panel (CD133, ALDH1A and ABCB5).
A total of 2×10^5 cells were injected per mouse into mammary gland in 50 μL of phosphate buffered saline (PBS). […] Tumors were measured using calipers and the tumor volumes (mm3) were calculated using the formula (length×width2)/2. ? arvested cells from primary tumors where then cytospun ? -treated with poly-1-lysine and fixed then stored in PBS for IFA Microscopy Analysis. […]

[2] = molecular target: T1, LSD1 and EOMES (Mus musculus, UniProt Q6ZQ88); test: Immunofluorescence co-expression and co-localization of LSD1 and EOMES in CD8+ T-cells; assay type: in vivo
T1 construct: CD8^+ T-cells isolated from the 4T1 metastatic xenograft mouse model; endogenous in cells; host or cells: CD8+ T-cells isolated from the tumour micro-environment of treated 4T1 mice
Protocol: FIG. 6 is a graphical and photographic representation depicting nuclear LSD1 complexes with EOMES in exhausted T-cell signatures. A. Nanostring transcript analysis was performed on isolated CD8^+ T-cells isolated from a 4T1 metastatic cancer mouse model treated with either Group A=Control, Group C: PD1 (10 mg/kg), Group D: Phenelzine (40 mg/kg), or Group F: PD1+Phenelzine. […] B. Immunofluorescence microscopy was performed on CD8^+ T-cells fixed and probed with primary anti-LSD1, anti-EOMES and anti-CD8 antibodies and DAPI. Representative images for each dataset are shown. […] C. […] Plot-profiles were plotted with the use of ImageJ software measuring a series of fluorescent intensities along a line spanning the nucleus. The pattern of the two plots can give an insight into the nature of the relationship between the two fluorochromes. Imagej software with automatic thresholding and manual selection ? for nucleus of cells was used to calculate the Pearson's co ? (PCC) for each pair of antibodies. The PCC Values range from −1=inverse of co-localization, 0=no co-localization, +1=perfect co-localization.
To unravel this role, the present inventors examined the co-expression of LSD1 and EOMES (an exhaustion marker) in CD8^+ T-cells isolated from the 4T1 metastatic xenograft mouse model.
This negative co-localization was unaffected by treatment with PD1 or LSD1 inhibitors (FIG. 7).
A total of 2×10^5 cells were injected per mouse into mammary gland in 50 μL of phosphate buffered saline (PBS). Treatments were started on mice after 15 days post-inoculation of 4T1 cells. […] Tumors were measured using calipers and the tumor volumes (mm3) were calculated using the formula (length×width2)/2. ? arvested cells from primary tumors where then cytospun ? -treated with poly-1-lysine and fixed then stored in PBS for IFA Microscopy Analysis. […] Digital images were analysed using ImageJ software (ImageJ, NIH, Bethesda, Md., USA) to determine the either the Total Nuclear Fluorescent Intensity (TNFI), the Total Cytoplasmic Fluorescent Intensity (TCFI) or total Fluorescent Intensity (TFI).

With `NNCCc1ccccc1` (racemic) [phenelzine sulfate, (±)-2-phenylethylhydrazine] the “expression of ABCB5” value [1] was “strongly inhibited”, the “expression of ALDH1A” value [1] was “did not significantly affect” and the “expression of CD133” value [1] was “did not significantly affect”. For the same molecule, the EOMES expression ([2]; CD8+ T-cells, nuclear TNFI) was “marked inhibition”, the LSD1 expression ([2]; CD8+ T-cells, nuclear TNFI) was “marked inhibition” and the “LSD1/EOMES nuclear protein complex (co-localization, plot-profiles and PCC)” value ([2]; nucleus of exhausted CD8+ T-cells) was “markedly inhibited”.
